From PubChem BioAssay (NCI)
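Growth conditions: 96-well plates. Treatment: test compound, 48 hours, 5 concentrations. Analysis: linear interpolation between bracketing concentrations; unreached endpoints set to highest concentration. Abbreviation: GI50, concentration required for 50% inhibition of growth. The concentration for full growth arrest is given as TGI.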

Columns and labels:
Test in all cases: NCI anticancer screen, dose series, 48 h
[1] = test system: SNB-75 CNS
[2] = test system: MDA-MB-435
[3] = test system: UACC-62 melanoma
[4] = test system: SK-MEL-2 melanoma
[5] = test system: OVCAR-8 ovarian
[6] = test system: SK-OV-3 ovarian
[7] = test system: KM12 colon
[8] = test system: EKVX NSCLC
[9] = test system: MALME-3M melanoma
[10] = test system: PC-3 prostate

Structure (SMILES) | GI50 [1] [µM] | TGI [1] [µM] | GI50 [2] [µM] | TGI [2] [µM] | GI50 [3] [µM] | TGI [3] [µM] | GI50 [4] [µM] | TGI [4] [µM] | GI50 [5] [µM] | TGI [5] [µM] | GI50 [6] [µM] | TGI [6] [µM] | GI50 [7] [µM] | TGI [7] [µM] | GI50 [8] [µM] | TGI [8] [µM] | GI50 [9] [µM] | TGI [9] [µM] | GI50 [10] [µM] | TGI [10] [µM]
Fc1ccc(Nc2ccc3cc(OCCCN4CCOCC4)ccc3n2)cc1F | 2.44 | 17.7 | 3.26 | 68 | 1.99 | 4.94 | 4.84 | 33.5 | 5.51 | > 100 | 8.24 | > 100 | 2.06 | 5.48 | 5.86 | > 100 | 2.25 | 7.74 | 4.29 | 50
CC1(C)CC2=NOS3=C2C(=NO3)C1c1ccccn1 (stereo not given) | – | > 100 | – | 39 | – | > 100 | – | > 100 | – | > 100 | – | > 100 | – | > 100 | – | > 100 | – | > 100 | – | > 100
O=C(CCc1ccc(O)c(O)c1)c1ccc(O)c(O)c1O | – | > 100 | – | 62.2 | – | > 100 | – | > 100 | – | 74.2 | – | > 100 | – | 36.2 | – | 48.4 | – | > 100 | – | > 100
O=[N+]([O-])c1ccccc1/C=C/C=C1c2ccccc2-c2ccccc21 | > 100 | > 100 | 12.4 | > 100 | > 100 | > 100 | > 100 | > 100 | > 100 | > 100 | > 100 | > 100 | > 100 | > 100 | > 100 | > 100 | > 100 | > 100 | > 100 | > 100
O=C1C(Br)=C(c2ccccc2)C(c2ccccc2)=C1c1ccccc1 | – | 12.9 | – | 12.5 | – | 5.73 | – | 14.4 | – | 4.46 | – | 29.3 | – | 18.5 | – | 18 | – | 3.33 | – | 16.2
OCC1OC(O)C(N=Cc2ccc3c(c2)OCO3)C(O)C1O (stereo not given) | – | > 100 | – | > 100 | – | > 100 | – | > 100 | – | > 100 | – | > 100 | – | > 100 | – | > 100 | – | > 100 | – | > 100
O=C1CN2CCC1C/C2=C\c1ccnc2c(Cl)cccc12 (stereo not given) | > 100 | > 100 | 75.6 | > 100 | > 100 | > 100 | > 100 | > 100 | 61.6 | > 100 | > 100 | > 100 | 56.8 | > 100 | 33 | > 100 | 91.9 | > 100 | 89 | > 100
COc1cc2c(cc1OCCCCCN1CCN(c3cc(=O)oc4c(C)c(OC)ccc34)CC1)N=C[C@@H]1CCCN1C2=O | < 0.0155 | < 0.0281 | < 0.0112 | 0.0262 | < 0.01 | 0.0147 | < 0.01 | < 0.0175 | 0.018 | 5.15 | 0.0435 | 12.8 | < 0.0169 | 0.0965 | 0.174 | 4.07 | 0.0182 | 0.0531 | < 0.01 | 0.408
